Results from patent publication US20210401786A1, “COMPOSITION FOR TREATING BURN WOUNDS” (priority 2020, published 2021).
Values joined by “and” are separate entries in the source; they are usually repeats but may differ in a detail not shown here. Identical values can stand only once.

Tests used:
Format in all cases: in vivo, Guangxi Bama mini-pigs
[1] = system: healed epidermis (proliferative layer and differentiated layer); assay: Histologic epidermal thickness of healed porcine burn wounds
Protocol: (§1) An immunohistochemistry analysis was performed to identify the localization and expression of specific molecular markers of keratinocytes in the healed epidermis.
The epidermis partitions into two layers: a proliferative layer and a differentiated layer.

P63 = assay: Immunohistochemistry of healed epidermis, IOD of P63; conditions: 4 weeks after treatment, Image-Pro Plus 6.0
Protocol: as §1
(§2) It can be seen from FIG. 6 that the nuclear transcription factor P63 was mainly expressed in undifferentiated proliferating keratinocytes located in the basal layer. CK 10 was mainly expressed in mature differentiating keratinocytes. The expression of P63 and CK10 protein indicate the proliferation and differentiation of keratinocytes during epithelialization and repair of wounds. The higher the expression of P63 and CK10 protein, the faster the cells proliferate and differentiate. In the late stage of wound repair, fibroblasts secrete more collagen fibers, and a large number of collagen fibers increase and are densely arranged. Masson staining is used to mark the subcutaneous collagen fibers as green. The structure of each layer of the epidermis treated with the present invention is clear. The proliferative layer and the differentiated layer can be clearly identified by immunohistochemical staining.
(§3) Integrated optical density (IOD) values analysis of immunohistological images of P63 and CK10 are performed by Image-Pro Plus 6.0, as shown in Table 3 and FIGS. 8 to 9. […]

CK10 = assay: Immunohistochemistry of healed epidermis, IOD of CK10; conditions: 4 weeks after treatment, Image-Pro Plus 6.0
Protocol: as §1, §2, §3

[2] = system: porcine full-thickness burn wounds; assay: Porcine full-thickness burn wound healing experiment; conditions: for Wound healing time (days, X +/− S): 9 wounds per group
Protocol: (2) Experimental animals: Three female Guangxi Bama mini-pigs are 19-21 kilograms (provided by Tianjin Bainong Laboratory Animal Breeding Technology Co., Ltd., Tianjin, China). Animals were housed in isolated steel cages (80×100×110 cm^3) at 25° C. under natural lighting in the Experimental Animal Center, after thoroughly disinfecting the breeding room and the cages for animals with disinfectants and ultraviolet lamps. Non-experimental personnel are strictly prohibited from entering the breeding room during the experiment Animals were fed with standard pig chow twice daily, 150 grains at a time, and had access to water ad libitum (water is of the clean standard for tap water). The breeding room and cage are disinfected regularly on a weekly basis, and the feed tank and the water sink are cleaned before each feeding.
(3) Creation of porcine full-thickness burn wound models: The miniature pig was raised conventionally, fasted for 12 h, laid on one side, and injected with sumianxin injection into the hip muscle. Once anesthetized, the miniature pig was transferred to an operating table and a ventilation tube was placed in the mouth. After disinfection of the back of the ear, an indwelling needle of the auricle vein was placed for adequate analgesia and sedation. The surgical area on the back was prepared, disinfected with iodophor, on which a sterile sheet was spread, and an expected site of a burn was marked. The aluminum block mold (the net weight of the aluminum block mold is 265 g, and the load is 1 kg) was heated to 96° C. for 10 minutes, and was in close contact with the skin for 45 seconds. Each pig had 9 wounds. The operation on the back of the 3 mini pigs is consistent. After the operation, the wounds were disinfected with iodophor, on which cotton pads dressing and elastic sleeves were applied. Antibiotics were injected intravenously to prevent infection, and 2 ml of the awakening agent Lu Xingning was injected intravenously. The pigs were then transferred to the cages. One hour after waking up, the pigs were fed and given oral rehydration saline. Activities and signs of the pigs were closely observed. After the burn injury, local debridement and different treatments were performed on the wounds. Three weeks after injury, the wounds were covered by necrotic eschar, without exudate and dissolution reaction. Excisional debridement down to the fat layer was performed. Wounds were then dressed and covered with elasticated jackets to prevent animal-initiated damage. Preemptive antibiotics and analeptic Lu Xingning were administered i.v., then the animals were transferred to individual cages, and monitored closely for adverse outcomes during their post-procedure recovery. Post-surgical pain was managed with oral analgesia.
In order to verify the therapeutic effect of the composition of this application on burn wounds, the composition of Example 3 of this application, recombinant human epidermal growth factor rhEGF (5000 IU/mL, 15 mL, Shenzhen Watsin Genetech Ltd.) and physiological saline were used respectively to treat the full-thickness burn wounds of the pigs.
The wounds were photographed and measured at day 7, 14, 21, 28 after different treatments. It can be seen from FIG. 2 that the new granulation tissue of the wound is fresh and rosy without exudation. […]

Substance: recombinant human epidermal growth factor [rhEGF]
- Thickness of differentiated layer (X +/− S) [1]: 246.20 μm
- Thickness of proliferative layer (X +/− S) [1]: 35.92 μm
- IOD (P63) (X +/− S) (P63): 21929.27
- IOD (CK10) (X +/− S) (CK10): 395254.15
- wound healing, gross appearance ([2]; FIG. 2, versus saline group): heal faster than those of the saline group
- residual wound area ([2]; FIG. 3, compared to the saline group, p<0.05): obviously reduced wound area at day 28
- wound healing rate ([2]; FIG. 4, compared to the saline group, p<0.05): obviously improved the wound healing rate at day 7, 14, 21
- Wound healing time (days, X +/− S) ([2]; Test Example 1, time to complete epithelialization): 23.56±4.85 days and 23.56 ± 4.85^2 days
- Wound healing time (days, X +/− S) ([2]; Test Example 3): 23.56 ± 4.85^2 days
